Key:
[1] = test system: mouse fibrosarcoma M5076; assay: Anti-tumor activity against M5076 fibrosarcoma (sc implanted, BDF1 mice); assay type: in vivo; settings: days 1, 4, 7, 10, 13 and 16; for 60 day survivors optimal dose / growth inhibition (%) optimal dose: oral; for 60 day survivors optimal dose: survivors/mice; for growth inhibition (%) optimal dose / growth inhibition (%) optimal dose/4: tumor size on twentieth day; for growth inhibition (%) optimal dose/4: optimal dose/4, oral
Protocol: The test animals used were female mice, 8-10 weeks old, of the BDF1 strain, weighing 20-25 g. The mice were purchased from Charles River Japan Inc., Kanagawa Japan. The mice were divided into experimental groups, each group containing 6 mice, and all mice within each group were treated identically. Each mouse was inoculated subcutaneously with 1×10^6 viable cells (the number of cells was measured by a dye exclusion method under microscopy) of the mouse fibrosarcoma M5076.
The test compounds listed in the following Table were dissolved in 0.2 ml of N,N-dimethylacetamide and the solution was mixed with 10% Emulphor (trade mark)-physiological saline on an agate mortar. The final concentration of N,N-dimethylacetamide was 5% v/v. The solution was administered orally on the first, fourth, seventh, tenth, thirteenth and sixteenth days following inoculation of the fibrosarcoma cells. The period for which the mice survived and the % inhibition of tumor growth were determined. A control group was not treated.
The anti-tumor effect is shown in the following Table 4 as the percent growth inhibition [GI (%)], calculated from the following equations [R. I. Geran et al., Cancer Chemother. Rept., 3 (1972)]:
TDt=average value of tumor sizes on the twentieth day in the treated group; and
TDc=average value of tumor sizes on the twentieth day in the control group;
tumor size=(tumor length+tumor width)/2.

[2] = test system: p-388 leukemia; assay: Anti-tumor activity against p-388 leukemia (ip implanted, CDF1 mice); assay type: in vivo; settings: for ILS (%) (increase in life span): days 1, 5 and 9; for 30 days survivors: days 1, 5 and 9, survivors/mice
Protocol: The test animals employed were female mice, 8 weeks of age, of the CDF1 strain, each weighing 21-25 g. The mice were divided into groups. each of 5 mice, and all mice within the group were treated identically. Into each mouse was implanted intraperitoneally 1×10^6 cells of the leukemia p-388.
The test compounds 1-9, 1-11, 1-15, 1-31 and 1-62 were dissolved in 0.2 ml of N,N-dimethylacetamide and the solution was mixed with 10% Emulphor (trade mark)-physiological saline on an agate mortar. Test compounds 1-34 and 1-41 were dissolved in a small amount of Tween 80 (registered trade mark) and immediately thereafter physiological saline was added to the solution form a suspension. The suspension was administered intraperitoneally on the first, fifth and ninth days following implantation of the leukemia cells. The period for which the mice survived was determined. A control group was treated identically, except that no active compound was administered.
The anti-tumor effect is shown in the following Table 3 as the increase in life span [ILS (%)], calculated from the following equation [R. I. Geran et al, Cancer Chemother. Rept., 3 (1972)]:
Dt=average number of days survival by the test group; and
Dc=average number of days survival by the control group.
In this test Dc was 9-10 days.

Row | Compound | 60 day survivors optimal dose [1] | growth inhibition (%) optimal dose [1] | growth inhibition (%) optimal dose/4 [1] | ILS (%) (increase in life span) ([2]; dose 200 mg/kg) | 30 days survivors ([2]; dose 200 mg/kg) | ILS (%) (increase in life span) ([2]; dose 50 mg/kg) | 30 days survivors ([2]; dose 50 mg/kg) | ILS (%) (increase in life span) ([2]; dose 100 mg/kg) | 30 days survivors ([2]; dose 100 mg/kg)
1 | CCCCCC(=O)Nc1ccn([C@@H]2O[C@H](CO)[C@@H](O)[C@@H]2C#N)c(=O)n1 [Compound 1-1, 2'-Cyano-2'-deoxy-N^4-hexanoyl-1-β-D-arabinofuranosylcytosine] | 4/6 | 97.7% | 61.1% | – | – | – | – | – | –
2 | CCCCCCCCCC(=O)Nc1ccn([C@@H]2O[C@H](CO)[C@@H](O)[C@@H]2C#N)c(=O)n1 [Compound 1-5, 2'-Cyano-N^4-decanoyl-2'-deoxy-1-β-D-arabinofuranosylcytosine] | 3/6 | 93.0% | 70.4% | – | – | – | – | – | –
3 | CCCCCCCCCCCCCC(=O)Nc1ccn([C@@H]2O[C@H](CO)[C@@H](O)[C@@H]2C#N)c(=O)n1 [Compound 1-9, 2'-Cyano-2'-deoxy-N^4-tetradecanoyl-1-β-D-arabinofuranosylcytosine] | 5/6 | 97.3% | 79.1% | > 200% | 4/5 | – | – | – | –
4 | CCCCCCCCCCCCCCCC(=O)Nc1ccn([C@@H]2O[C@H](CO)[C@@H](O)[C@@H]2C#N)c(=O)n1 [Compound 1-11, 2'-Cyano-2'-deoxy-N^4-palmitoyl-1-β-D-arabinofuranosylcytosine] | 5/6 | 99.2% | 90.2% | – | – | 189% | 2/5 | – | –
5 | CCCCCCCCCCCCCCCCCC(=O)Nc1ccn([C@@H]2O[C@H](CO)[C@@H](O)[C@@H]2C#N)c(=O)n1 [Compound 1-13, 2'-Cyano-2'-deoxy-N^4-stearoyl-1-β-D-arabinofuranosylcytosine] | 4/6 | 98.1% | 88.9% | – | – | – | – | – | –
6 | CCCCCCCCCCCCCCCCCCCC(=O)Nc1ccn([C@@H]2O[C@H](CO)[C@@H](O)[C@@H]2C#N)c(=O)n1 [Compound 1-15, 2'-Cyano-2'-deoxy-N^4-icosanoyl-1-β-D-arabinofuranosylcytosine] | 5/6 | 96.5% | 88.7% | – | – | – | – | 202% | 0/5
7 | COCOCCCCCCCCCC(=O)Nc1ccn([C@@H]2O[C@H](CO)[C@@H](O)[C@@H]2C#N)c(=O)n1 [Compound 1-31, 2'-Cyano-2'-deoxy-N^4-(10-methoxymethoxydecanoyl)-1-β-D-arabinofuranosylcytosine] | – | – | – | 152% | 0/5 | – | – | – | –
8 | COCOCCCCCCCCCCCCCCCC(=O)Nc1ccn([C@@H]2O[C@H](CO)[C@@H](O)[C@@H]2C#N)c(=O)n1 [Compound 1-34, 2'-Cyano-2'-deoxy-N^4-(16-methoxymethoxyhexadecanoyl)-1-β-D-arabinofuranosylcytosine] | 5/6 | 96.0% | 87.2% | – | – | – | – | > 195% | 3/5
9 | COCCOCOCCCCCCCCCCCCCCCC(=O)Nc1ccn([C@@H]2O[C@H](CO)[C@@H](O)[C@@H]2C#N)c(=O)n1 [Compound 1-41, 2'-Cyano-2'-deoxy-N^4-(16-methoxyethoxymethoxyhexadecanoyl)-1-β-D-arabinofuranosylcytosine] | 5/6 | 99.2% | 76.2% | – | – | – | – | 159% | 2/5
10 | N#CCCCCCCCCCCC(=O)Nc1ccn([C@@H]2O[C@H](CO)[C@@H](O)[C@@H]2C#N)c(=O)n1 [Compound 1-62, 2'-Cyano-N^4-(11-cyanoundecanoyl)-2'-deoxy-1-β-D-arabinofuranosylcytosine] | 6/6 | 99.0% | 83.3% | 159% | 0/5 | – | – | – | –
